Patent US20170190671A1, “BIS(ARYL)CATECHOL DERIVATIVES AS HERBICIDES” (E I DU PONT DE NEMOURS AND COMPANY, priority 2014, published 2017)

Key:
Assay type in all cases: in vivo
[1] = test system: barnyardgrass (Echinochloa crus-galli); assay: Test B flooded paddy; details: Echinochloa crus-galli, 336 h; 250 g ai/ha, Flood, 13 to 15 days, scale 0 (no effect) to 100 (complete control); read-out: Plant response rating, Barnyardgrass
Outline: (§1)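 Ratings were visual and made relative to untreated controls after 13 to 15 greenhouse days.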

[2] = test system: ducksalad (Heteranthera limosa); assay: Test B flooded paddy; details: Heteranthera limosa, 336 h; 250 g ai/ha, Flood, 13 to 15 days, scale 0 (no effect) to 100 (complete control); read-out: Plant response rating, Ducksalad
Outline: as §1

rice (Oryza sativa) = assay: Test B flooded paddy; details: Oryza sativa, 336 h; 250 g ai/ha, Flood, 13 to 15 days, scale 0 (no effect) to 100 (complete control); read-out: Plant response rating, Rice
Outline: as §1

[3] = test system: sedge, umbrella (small-flower umbrella sedge, Cyperus difformis); assay: Test B flooded paddy; details: Cyperus difformis, 336 h; 250 g ai/ha, Flood, 13 to 15 days, scale 0 (no effect) to 100 (complete control); read-out: Plant response rating, Sedge, Umbrella
Outline: as §1

[4] = test system: Italian ryegrass (Lolium multiflorum); assay: Test A preemergence; details: Lolium multiflorum, pre-emergence, 240 h
Outline: (§2)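 Visual 0–100 rating (100 = complete control) taken about 10 d post-treatment relative to untreated checks. Preemergence: directed soil spray on sown loam/sand pots. Postemergence: seedlings 2–10 cm, 1–2 leaf. Non-phytotoxic solvent formulation with surfactant.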

[5] = test system: barnyardgrass (Echinochloa crus-galli); assay: Test A preemergence; details: Echinochloa crus-galli, pre-emergence, 240 h
Outline: as §2

[6] = test system: giant foxtail (Setaria faberii); assay: Test A preemergence; details: Setaria faberi, pre-emergence, 240 h
Outline: as §2

kochia (Kochia scoparia) [7] = assay: Test A preemergence; details: Bassia scoparia, pre-emergence, 240 h
Outline: as §2

[8] = test system: pigweed (Amaranthus retroflexus); assay: Test A preemergence; details: Amaranthus retroflexus, pre-emergence, 240 h
Outline: as §2

[9] = test system: ragweed (common ragweed, Ambrosia elatior); assay: Test A preemergence; details: Ambrosia artemisiifolia, pre-emergence, 240 h
Outline: as §2

[10] = test system: Italian ryegrass (Lolium multiflorum); assay: Test A postemergence; details: Lolium multiflorum, post-emergence, 240 h, 0 to 100 scale, read-out: Plant response rating, Ryegrass, Italian
Outline: as §2

[11] = test system: barnyardgrass (Echinochloa crus-galli); assay: Test A postemergence; details: Echinochloa crus-galli, post-emergence, 240 h, 0 to 100 scale, read-out: Plant response rating, Barnyardgrass
Outline: as §2

[12] = test system: blackgrass (Alopecurus myosuroides); assay: Test A postemergence; details: Alopecurus myosuroides, post-emergence, 240 h, 0 to 100 scale, read-out: Plant response rating, Blackgrass
Outline: as §2

corn (Zea mays) = assay: Test A postemergence; details: Zea mays, post-emergence, 240 h, 0 to 100 scale
Outline: as §2

[13] = test system: galium (catchweed bedstraw, Galium aparine); assay: Test A postemergence; details: Galium, post-emergence, 240 h, 0 to 100 scale, read-out: Plant response rating, Galium
Outline: as §2

[14] = test system: giant foxtail (Setaria faberii); assay: Test A postemergence; details: Setaria faberi, post-emergence, 240 h, 0 to 100 scale, read-out: Plant response rating, Foxtail, Giant
Outline: as §2

kochia (Kochia scoparia) [15] = assay: Test A postemergence; details: Bassia scoparia, post-emergence, 240 h, 0 to 100 scale, read-out: Plant response rating, Kochia
Outline: as §2

[16] = test system: pigweed (Amaranthus retroflexus); assay: Test A postemergence; details: Amaranthus retroflexus, post-emergence, 240 h, 0 to 100 scale, read-out: Plant response rating, Pigweed
Outline: as §2

[17] = test system: ragweed (common ragweed, Ambrosia elatior); assay: Test A postemergence; details: Ambrosia artemisiifolia, post-emergence, 240 h, 0 to 100 scale, read-out: Plant response rating, Ragweed
Outline: as §2

[18] = test system: wheat (Triticum aestivum); assay: Test A postemergence; details: Triticum aestivum, post-emergence, 240 h, 0 to 100 scale, read-out: Plant response rating, Wheat
Outline: as §2

[19] = test system: pigweed (Amaranthus retroflexus); assay: Test C postemergence; details: Amaranthus retroflexus, post-emergence, 336 h, Postemergence, scale 0 to 100, read-out: Plant response rating, Pigweed
[20] = test system: waterhemp (common waterhemp, Amaranthus rudis); assay: Test C postemergence; details: Amaranthus tuberculatus, post-emergence, Postemergence, scale 0 to 100, read-out: Plant response rating, Waterhemp

Fc1cccc(Oc2ncc(C(F)(F)F)cn2)c1Oc1ncc(Cl)cn1 [Compound 42, 5-chloro-2-[2-fluoro-6-[[5-(trifluoromethyl)-2-pyrimidinyl]oxy]phenoxy]pyrimidine]
60%: pest or weed control at 125 g/ha ([4]; 125 g ai/ha, 0 to 100 scale (0 no effect, 100 complete control), read-out: Ryegrass, Italian plant response rating)
80%: plant injury at 250 g/ha (rice (Oryza sativa)) | Corn plant response rating (crop injury, 0 = no effect, 100 = complete kill) at 125 g/ha (corn (Zea mays); 125 g ai/ha) | plant injury at 125 g/ha ([18]; 125 g ai/ha)
98%: pest or weed control at 62 g/ha ([19]; 62 g ai/ha) | pest or weed control at 125 g/ha ([19]; 125 g ai/ha)
90%: pest or weed control at 125 g/ha ([12]; 125 g ai/ha) | pest or weed control at 31 g/ha ([19]; 31 g ai/ha) | pest or weed control at 31 g/ha ([20]; 31 g ai/ha)
95%: pest or weed control at 62 g/ha ([20]; 62 g ai/ha) | pest or weed control at 125 g/ha ([20]; 125 g ai/ha)
100%: pest or weed control at 250 g/ha [1] | pest or weed control at 250 g/ha [2] | pest or weed control at 250 g/ha [3] | pest or weed control at 500 g/ha ([4]; 500 g ai/ha, 0 to 100 scale, read-out: Plant response rating, Ryegrass, Italian) | pest or weed control at 125 g/ha ([5]; 125 g ai/ha, 0 to 100 scale (0 no effect, 100 complete control), read-out: Barnyardgrass plant response rating) | pest or weed control at 500 g/ha ([5]; 500 g ai/ha, 0 to 100 scale, read-out: Plant response rating, Barnyardgrass) | pest or weed control at 125 g/ha ([6]; 125 g ai/ha, 0 to 100 scale (0 no effect, 100 complete control), read-out: Foxtail, Giant plant response rating) | pest or weed control at 500 g/ha ([6]; 500 g ai/ha, 0 to 100 scale, read-out: Plant response rating, Foxtail, Giant) | pest or weed control at 125 g/ha (kochia (Kochia scoparia) [7]; 125 g ai/ha, 0 to 100 scale (0 no effect, 100 complete control), read-out: Kochia plant response rating) | pest or weed control at 500 g/ha (kochia (Kochia scoparia) [7]; 500 g ai/ha, 0 to 100 scale, read-out: Plant response rating, Kochia) | pest or weed control at 125 g/ha ([8]; 125 g ai/ha, 0 to 100 scale (0 no effect, 100 complete control), read-out: Pigweed plant response rating) | pest or weed control at 500 g/ha ([8]; 500 g ai/ha, 0 to 100 scale, read-out: Plant response rating, Pigweed) | pest or weed control at 125 g/ha ([9]; 125 g ai/ha, 0 to 100 scale (0 no effect, 100 complete control), read-out: Ragweed plant response rating) | pest or weed control at 500 g/ha ([9]; 500 g ai/ha, 0 to 100 scale, read-out: Plant response rating, Ragweed) | pest or weed control at 125 g/ha ([10]; 125 g ai/ha) | pest or weed control at 500 g/ha ([10]; 500 g ai/ha) | pest or weed control at 125 g/ha ([11]; 125 g ai/ha) | pest or weed control at 500 g/ha ([11]; 500 g ai/ha) | pest or weed control at 500 g/ha ([12]; 500 g ai/ha) | Corn plant response rating (crop injury, 0 = no effect, 100 = complete kill) at 500 g/ha (corn (Zea mays); 500 g ai/ha) | pest or weed control at 125 g/ha ([13]; 125 g ai/ha) | pest or weed control at 500 g/ha ([13]; 500 g ai/ha) | pest or weed control at 125 g/ha ([14]; 125 g ai/ha) | pest or weed control at 500 g/ha ([14]; 500 g ai/ha) | pest or weed control at 125 g/ha (kochia (Kochia scoparia) [15]; 125 g ai/ha) | pest or weed control at 500 g/ha (kochia (Kochia scoparia) [15]; 500 g ai/ha) | pest or weed control at 125 g/ha ([16]; 125 g ai/ha) | pest or weed control at 500 g/ha ([16]; 500 g ai/ha) | pest or weed control at 500 g/ha ([17]; 500 g ai/ha) | plant injury at 500 g/ha ([18]; 500 g ai/ha)
70%: pest or weed control at 125 g/ha ([17]; 125 g ai/ha)
